Laboratory results published in patent EP0908457B1, “3-(1,2-benzisothiazol- and isoxazol-5-Y1)-2,4(1H,3H)-pyrimidinedione or thione and 3-(1,2-benzisothiazol- and isoxazol-5-y1)-4(3H)-pyrimidinone or thione herbicidal agents” (BASF AKTIENGESELLSCHAFT, priority 1997, dated 1999).

How the values were obtained:
[1] = system: Echinochloa oryzoides (Ard.) Fritsch.; experiment: Preemergence weed control under flooded paddy conditions, ECHORC (Watergrass (Calif.)); assay type: in vivo; settings: preemergence weeds, flooded paddy, rated three to four weeks after treatment
Cyperus iria = experiment: Preemergence weed control under flooded paddy conditions, CYPIR (Rice Flatsedge); assay type: in vivo; settings: preemergence weeds, flooded paddy, rated three to four weeks after treatment
[2] = system: Oryza sativa, (L.) Tebonnet; experiment: Rice tolerance to post-transplant applications under flooded paddy conditions (Example 187), ORYSAT (Rice, Tebonnet); settings: rated three to four weeks after treatment
[3] = system: Cyperus serotinus, Rottb.; experiment: Preemergence weed control under flooded paddy conditions, CYPSE (Flatsedge); assay type: in vivo; settings: preemergence weeds, rated three to four weeks after treatment
Sagittaria pygmaea, L. = experiment: Preemergence weed control under flooded paddy conditions, SAGPY (Arrowhead (Pygmaea)); assay type: in vivo; settings: preemergence weeds, flooded paddy, rated three to four weeks after treatment
Further: meaning of each grade not given here.

SMILES	herbicidal effect rating, ECHORC ([1]; Rate 0.0320 kg/ha)	herbicidal effect rating, ECHORC ([1]; Rate 0.0620 kg/ha)	herbicidal effect rating, ECHORC ([1]; Rate 0.1250 kg/ha)	herbicidal effect rating, ECHORC ([1]; Rate 0.2500 kg/ha)	herbicidal effect rating, CYPIR (Cyperus iria; Rate 0.0320 kg/ha)	herbicidal effect rating, CYPIR (Cyperus iria; Rate 0.0620 kg/ha)	herbicidal effect rating, CYPIR (Cyperus iria; Rate 0.1250 kg/ha)	herbicidal effect rating, CYPIR (Cyperus iria; Rate 0.2500 kg/ha)	herbicidal effect rating ORYSAT ([2]; Rate 0.0320 kg/ha)	herbicidal effect rating ORYSAT ([2]; Rate 0.0620 kg/ha)	herbicidal effect rating ORYSAT ([2]; Rate 0.1250 kg/ha)	herbicidal effect rating ORYSAT ([2]; Rate 0.2500 kg/ha)	herbicidal effect rating, CYPSE ([3]; Rate 0.0320 kg/ha)	herbicidal effect rating, CYPSE ([3]; Rate 0.0620 kg/ha)	herbicidal effect rating, CYPSE ([3]; Rate 0.1250 kg/ha)	herbicidal effect rating, CYPSE ([3]; Rate 0.2500 kg/ha)	herbicidal effect rating, SAGPY (Sagittaria pygmaea, L.; Rate 0.0320 kg/ha)	herbicidal effect rating, SAGPY (Sagittaria pygmaea, L.; Rate 0.0620 kg/ha)	herbicidal effect rating, SAGPY (Sagittaria pygmaea, L.; Rate 0.1250 kg/ha)	herbicidal effect rating, SAGPY (Sagittaria pygmaea, L.; Rate 0.2500 kg/ha)
Cn1c(C(F)(F)F)cc(=O)n(-c2ccc3snc(C(=O)CBr)c3c2)c1=O [Example 337, 2,4(1H,3H)-Pyrimidinedione, 3-[3-(bromoacetyl)-1,2-benzisothiazol-5-yl]-1-methyl-6-(trifluoromethyl)-]	2.0	2.0	6.0	6.0	0.0	0.0	6.0	9.0	3.0	3.0	3.0	3.0	0.0	0.0	0.0	9.0	0.0	0.0	0.0	3.0
Cn1c(C(F)(F)F)cc(=O)n(-c2ccc3snc(C(=O)CCl)c3c2)c1=O [Example 338, 2,4(1H,3H)-Pyrimidinedione, 3-[3-(chloroacetyl)-1,2-benzisothiazol-5-yl]-1-methyl-6-(trifluoromethyl)-]	2.0	2.0	4.0	9.0	3.0	3.0	3.0	8.0	0.0	0.0	3.0	6.0	0.0	0.0	0.0	5.0	0.0	2.0	2.0	5.0
CC(Br)c1nsc2ccc(-n3c(=O)cc(C(F)(F)F)n(C)c3=O)cc12 (centres unmarked) [Example 339, 2,4(1H,3H)-Pyrimidinedione, 3-[3-(1-bromoethyl)-1,2-benzisothiazol-5-yl]-1-methyl-6-(trifluoromethyl)-]	0.0	0.0	4.0	6.0	4.0	4.0	7.0	7.0	5.0	7.0	9.0	9.0	0.0	0.0	6.0	9.0	5.0	5.0	5.0	9.0
Cn1c(C(F)(F)F)cc(=O)n(-c2ccc3snc(C(C)(Br)Br)c3c2)c1=O [Example 340, 2,4(1H,3H)-Pyrimidinedione, 3-[3-(1,1-dibromoethyl)-1,2-benzisothiazol-5-yl]-1-methyl-6-(trifluoromethyl)-]	5.0	6.0	9.0	9.0	2.0	5.0	7.0	9.0	5.0	6.0	7.0	9.0	3.0	3.0	6.0	7.0	4.0	4.0	5.0	7.0
